From patent US8999957B2, “Heterocyclic compounds as ERK inhibitors” (Merck Sharp & Dohme Corp., priority 2010, dated 2015)
Values joined by “and” are separate entries in the source; they are usually repeats but may differ in a detail not shown here. Equal entries are not always repeated. Where two headings read alike, the source gives them in different places.

Molecular target: fully phosphorylated, mouse aERK2 enzyme (Mus musculus (Mouse), UniProt P63085)
Assay: Active ERK2 (aERK) IMAP-FP assay, condition 2
Format: biochemical
Protocol: Active ERK2 (aERK) Assay: (Unless Indicated Otherwise, the Data Provided for aERK was obtained using Condition 1)
Activated ERK2 activity was determined in an IMAP-FP assay (Molecular Devices). […] Phosphorylation reactions were allowed to proceed for 40-45 minutes and were immediately quenched by the addition of 60 μL IMAP detection beads (1:1000 dilutions) in IMAP binding buffer. Plates were read on EnVision reader after 30 minutes binding equilibration.

[1] = active ERK2, read-out: aErk2 Ic50
[2] = aERK assay condition 2, 30 uM ATP, read-out: aERK IC50

Chain of fully phosphorylated, mouse aERK2 enzyme (P63085 whole entry): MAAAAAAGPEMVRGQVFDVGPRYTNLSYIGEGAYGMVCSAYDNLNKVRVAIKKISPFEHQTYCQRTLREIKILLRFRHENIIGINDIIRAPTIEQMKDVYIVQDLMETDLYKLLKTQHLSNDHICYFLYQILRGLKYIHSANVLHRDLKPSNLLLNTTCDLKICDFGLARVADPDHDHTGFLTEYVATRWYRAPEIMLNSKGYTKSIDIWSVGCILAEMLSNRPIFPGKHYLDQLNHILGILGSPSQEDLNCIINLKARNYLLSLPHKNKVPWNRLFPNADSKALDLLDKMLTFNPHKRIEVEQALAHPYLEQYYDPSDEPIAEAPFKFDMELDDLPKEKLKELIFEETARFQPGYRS

Compound | IC50 [1] | IC50 [2] [µM]
Cc1cc(-c2n[nH]c3ccc(C(=O)N[C@@H]4CC[C@@H](C(=O)N5CC(F)(F)C5)N(Cc5cccs5)C4)cc23)ccn1 [N-[(3R,6S)-6-[(3,3-difluoroazetidin-1-yl)carbonyl]-1-(thiophen-2-ylmethyl)-piperidin-3-yl]-3-(2-methylpyridin-4-yl)-1H-indazole-5-carboxamide] | 0.0258 µM | 
COc1cccc(F)c1CN1C[C@H](NC(=O)c2ccc3[nH]nc(-c4ccnc(C)c4)c3c2)CC[C@H]1C(=O)NN [N-[(3R,6S)-1-(2-fluoro-6-methoxybenzyl)-6-(hydrazinocarbonyl)piperidin-3-yl]-3-(2-methylpyridin-4-yl)-1H-indazole-5-carboxamide] | 0.001 µM | 
COc1cccc(F)c1CN1C[C@H](NC(=O)c2ccc3[nH]nc(-c4ccnc(C)c4)c3c2)CC[C@H]1C(=O)N1CCN(C)CC1 [N-{(3R,6S)-1-(2-fluoro-6-methoxybenzyl)-6-[(4-methylpiperazin-1-yl)carbonyl]piperidin-3-yl}-3-(2-methylpyridin-4-yl)-1H-indazole-5-carboxamide] | 0.0325 µM | 
COc1cccc(F)c1CN1C[C@H](NC(=O)c2ccc3[nH]nc(-c4ccnc(C)c4)c3c2)CC[C@H]1C(=O)N1CCC1 [N-[(3R,6S)-6-(azetidin-1-ylcarbonyl)-1-(2-fluoro-6-methoxybenzyl)piperidin-3-yl]-3-(2-methylpyridin-4-yl)-1H-indazole-5-carboxamide] | 0.0349 µM | 
NC(=O)C(c1ccccc1F)N1CCC[C@@H](NC(=O)c2ccc3[nH]nc(-c4ccncc4)c3c2)C1 (single isomer, unassigned) [N-((R)-1-((R or S)-2-amino-1-(2-fluorophenyl)-2-oxoethyl)-piperidin-3-yl)-3-(pyridin-4-yl)-1H-indazole-5-carboxamide] |  | 0.0722
CCN(CC)C(=O)[C@@H]1CC[C@@H](NC(=O)c2ccc3[nH]nc(-c4ccc5nc(C)sc5c4)c3c2)CN1Cc1c(F)cccc1OC [N-[(3R,6S)-6-(diethylcarbamoyl)-1-(2-fluoro-6-methoxybenzyl)piperidin-3-yl]-3-(2-methyl-1,3-benzothiazol-6-yl)-1H-indazole-5-carboxamide] | 0.0329 µM | 
Cc1cc(-c2n[nH]c3ccc(C(=O)N[C@@H]4CC[C@@H](C(=O)N5CC(F)(F)C5)N(Cc5ccccc5F)C4)cc23)ccn1 [N-[(3R,6S)-6-[(3,3-difluoroazetidin-1-yl)carbonyl]-1-(2-fluorobenzyl)piperidin-3-yl]-3-(2-methylpyridin-4-yl)-1H-indazole-5-carboxamide] | 0.0566 µM | 
COc1cccc(F)c1CN1C[C@H](NC(=O)c2ccc3[nH]nc(-c4ccnc(C)c4)c3c2)CC[C@H]1C(=O)N1CC(F)(F)C1 [N-[(3R,6S)-6-[(3,3-difluoroazetidin-1-yl)carbonyl]-1-(2-fluoro-6-methoxybenzyl)-piperidin-3-yl]-3-(2-methylpyridin-4-yl)-1H-indazole-5-carboxamide] | 0.0148 µM and 0.0104 µM | 
CCN(CC)C(=O)[C@@H]1CC[C@@H](NC(=O)c2ccc3[nH]nc(-c4ccnc(C)c4)c3c2)CN1CCc1ccccc1 [N-[(3R,6S)-6-(diethylcarbamoyl)-1-(2-phenylethyl)piperidin-3-yl]-3-(2-methylpyridin-4-yl)-1H-indazole-5-carboxamide] | 0.158 µM | 
COc1cccc(F)c1CN1C[C@H](NC(=O)c2ccc3[nH]nc(-c4ccnc(C)c4)c3c2)CC[C@H]1C(=O)NCCCNC(=O)OC(C)(C)C [tert-butyl [3-({[(2S,5R)-1-(2-fluoro-6-methoxybenzyl)-5-({[3-(2-methylpyridin-4-yl)-1H-indazol-5-yl]carbonyl}amino)piperidin-2-yl]carbonyl}amino)propyl]carbamate] | 0.0169 µM | 
COc1cccc(F)c1CN1C[C@H](NC(=O)c2ccc3[nH]nc(-c4ccnc(C)c4)c3c2)CC[C@H]1C(=O)Nc1nccs1 [N-[(3R,6S)-1-(2-fluoro-6-methoxybenzyl)-6-(1,3-thiazol-2-ylcarbamoyl)piperidin-3-yl]-3-(2-methylpyridin-4-yl)-1H-indazole-5-carboxamide] |  | 0.014
COc1cccc(F)c1CN1C[C@H](NC(=O)c2ccc3[nH]nc(-c4ccnc(C)c4)c3c2)CC[C@H]1C(=O)NOCC1CC1 [N-[(3R,6S)-6-[(cyclopropylmethoxy)carbamoyl]-1-(2-fluoro-6-methoxybenzyl)piperidin-3-yl]-3-(2-methylpyridin-4-yl)-1H-indazole-5-carboxamide] |  | 0.0006
CN(C)C(=O)C(c1c(F)cccc1F)N1CCC[C@@H](NC(=O)c2ccc3[nH]nc(-c4ccncc4)c3c2)C1 (single isomer, unassigned) [drawing 508, N-((R)-1-((S or R)-1-(2,6-difluorophenyl)-2-(dimethyl-amino)-2-oxoethyl)piperidin-3-yl)-3-(pyridin-4-yl)-1H-indazole-5-carboxamide] |  | 0.115
COc1cccc(F)c1CN1C[C@H](NC(=O)c2ccc3[nH]nc(-c4ccnc(C)c4)c3c2)CC[C@H]1C(=O)N1CCN(C(=O)OC2CCCC2)CC1 [cyclopentyl 4-{[(2S,5R)-1-(2-fluoro-6-methoxybenzyl)-5-({[3-(2-methylpyridin-4-yl)-1H-indazol-5-yl]carbonyl}amino)piperidin-2-yl]carbonyl}piperazine-1-carboxylate] | 0.031 µM | 
COc1cccc(F)c1CN1C[C@H](NC(=O)c2ccc3[nH]nc(-c4ccnc(C)c4)c3c2)CC[C@H]1C(=O)Nc1cccc(F)c1 [N-{(3R,6S)-1-(2-fluoro-6-methoxybenzyl)-6-[(3-fluorophenyl)carbamoyl]piperidin-3-yl}-3-(2-methylpyridin-4-yl)-1H-indazole-5-carboxamide] |  | 0.0152
COc1cccc(F)c1CN1C[C@H](NC(=O)c2ccc3[nH]nc(-c4ccnc(C)c4)c3c2)CC[C@H]1C(=O)Nc1cccnc1 [N-[(3R,6S)-1-(2-fluoro-6-methoxybenzyl)-6-(pyridin-3-ylcarbamoyl)piperidin-3-yl]-3-(2-methylpyridin-4-yl)-1H-indazole-5-carboxamide] |  | 0.0041
COc1cccc(F)c1CN1C[C@H](NC(=O)c2ccc3[nH]nc(-c4ccnc(C)c4)c3c2)CC[C@H]1C(=O)NC1CCCC1 | 0.105 µM | 
COc1ccc(N(C)C(=O)[C@@H]2CC[C@@H](NC(=O)c3ccc4[nH]nc(-c5ccnc(C)c5)c4c3)CN2Cc2c(F)cccc2OC)cc1 [N-{(3R,6S)-1-(2-fluoro-6-methoxybenzyl)-6-[(4-methoxyphenyl)(methyl)carbamoyl]piperidin-3-yl}-3-(2-methylpyridin-4-yl)-1H-indazole-5-carboxamide] |  | 0.0058
CNC(=O)C(c1c(F)cccc1F)N1CCC[C@@H](NC(=O)c2ccc3[nH]nc(-c4ccncc4)c3c2)C1 (single isomer, unassigned) [drawing 506, N-((R)-1-((S or R)-1-(2,6-difluorophenyl)-2-(methylamino)-2-oxoethyl)piperidin-3-yl)-3-(pyridin-4-yl)-1H-indazole-5-carboxamide] |  | 0.0208
COc1cccc(F)c1CN1C[C@H](NC(=O)c2ccc3[nH]nc(-c4ccnc(C)c4)c3c2)CC[C@H]1C(=O)NCC1CC1 [N-[(3R,6S)-6-[(cyclopropylmethyl)carbamoyl]-1-(2-fluoro-6-methoxybenzyl)piperidin-3-yl]-3-(2-methylpyridin-4-yl)-1H-indazole-5-carboxamide] |  | 0.0049
Cc1cc(-c2n[nH]c3ccc(C(=O)N[C@@H]4CC[C@@H](C(=O)N(C)C)N(CCc5ccccc5)C4)cc23)ccn1 [N-[(3R,6S)-6-(dimethylcarbamoyl)-1-(2-phenylethyl)piperidin-3-yl]-3-(2-methylpyridin-4-yl)-1H-indazole-5-carboxamide] | 0.131 µM | 
CN(C)C(=O)C(c1ccccc1F)N1CCC[C@@H](NC(=O)c2ccc3[nH]nc(-c4ccncc4)c3c2)C1 (single isomer, unassigned) [N-((R)-1-((R or S)-2-(dimethylamino)-1-(2-fluorophenyl)-2-oxoethyl)piperidin-3-yl)-3-(pyridin-4-yl)-1H-indazole-5-carboxamide] |  | 0.0264
COc1cccc(F)c1CN1C[C@H](NC(=O)c2ccc3[nH]nc(-c4ccnc(C)c4)c3c2)CC[C@H]1C(=O)N(C)CCCCNC(=O)OC(C)(C)C [tert-butyl {4-[{[(2S,5R)-1-(2-fluoro-6-methoxybenzyl)-5-({[3-(2-methylpyridin-4-yl)-1H-indazol-5-yl]carbonyl}amino)piperidin-2-yl]carbonyl}(methyl)amino]butyl}carbamate] | 0.0903 µM | 
COc1cccc(F)c1CN1C[C@H](NC(=O)c2ccc3[nH]nc(-c4ccnc(C)c4)c3c2)CC[C@H]1C(=O)N1CCN(C(=O)OC(C)C)CC1 [1-methylethyl 4-{[(2S,5R)-1-(2-fluoro-6-methoxybenzyl)-5-({[3-(2-methylpyridin-4-yl)-1H-indazol-5-yl]carbonyl}amino)piperidin-2-yl]carbonyl}piperazine-1-carboxylate] | 0.0191 µM | 
CCN(CC)C(=O)[C@@H]1CC[C@@H](NC(=O)c2ccc3[nH]nc(-c4ccnc(C)c4)c3c2)CN1Cc1cccs1 | 0.0282 µM | 
COc1cccc(F)c1CN1C[C@H](NC(=O)c2ccc3[nH]nc(-c4ccnc(C)c4)c3c2)CC[C@H]1C(=O)Nc1ccc(C)nc1 [N-{(3R,6S)-1-(2-fluoro-6-methoxybenzyl)-6-[(6-methylpyridin-3-yl)carbamoyl]piperidin-3-yl}-3-(2-methylpyridin-4-yl)-1H-indazole-5-carboxamide] |  | 0.0067
COc1cccc(F)c1CN1C[C@H](NC(=O)c2ccc3[nH]nc(-c4ccnc(C)c4)c3c2)CC[C@H]1C(=O)N1CC(C)(O)C1 [N-{(3R,6S)-1-(2-fluoro-6-methoxybenzyl)-6-[(3-hydroxy-3-methylazetidin-1-yl)carbonyl]piperidin-3-yl}-3-(2-methylpyridin-4-yl)-1H-indazole-5-carboxamide] |  | 0.0011
COc1ccnc(NC(=O)[C@@H]2CC[C@@H](NC(=O)c3ccc4[nH]nc(-c5ccnc(C)c5)c4c3)CN2Cc2c(F)cccc2OC)c1 [N-{(3R,6S)-1-(2-fluoro-6-methoxybenzyl)-6-[(4-methoxypyridin-2-yl)carbamoyl]piperidin-3-yl}-3-(2-methylpyridin-4-yl)-1H-indazole-5-carboxamide] |  | 0.0502
